Test results as given in US20090299034A1, “Collagen-related peptides” (priority 2007, published 2009).
One block for each molecule: values may come before it.

Columns and labels:
[1] = system: washed platelets; test: Inhibition of platelet aggregation induced by collagen or CRP trimer SEQ ID 145; assay type: cell-based, human; settings: GPIIb/IIIa antagonist at 10, 100 and 1000 nM, 5 min pre-incubation
[2] = system: washed platelets; test: Human platelet aggregation assay; assay type: cell-based; settings: for EC50 ± SEM platelet aggregation: Table 3
Protocol: Human platelet-rich plasma (PRP) concentrate from healthy volunteers was purchased from Biological Specialties, Inc. (Colmar, Pa.). […] The PRP was centrifuged at 730 g for 15 min. The resulting platelet pellet was washed twice in CGS buffer (13 mM sodium citrate, 30 mM glucose, 120 mM NaCl, pH 6.5) containing 1 U/mL apyrase (grade V, Sigma-Aldrich) and resuspended in Tyrode's buffer (140 mM NaCl, 2.7 mM KCl, 12 mM NaHCO3, 0.76 mM Na2HPO4, 5.5 mM dextrose, 5.0 mM Hepes, 0.2% BSA, pH 7.4). The “washed” platelets were diluted to 3×10^8 platelets/mL and kept >45 min at 37° C. before use.
For the assay, 105 μL of washed platelets, 2 mM CaCl2 and […] of fibrinogen were added to a 96-well microtiter plate. Platelet aggregation was initiated by the addition of serial concentrations of native collagen fibrils (equine type I; 92% identity with human collagen sequence; Chrono-log Corp., Havertown, Pa.) or test peptides. Buffer was added to one set of control wells. The assay plate was stirred constantly and intermittently placed in a microplate reader (Softmax, Molecular Devices, Menlo Park, Calif.) to read optical density (650 nm) at 0 and 5 min after the addition of the compound solutions. Aggregation was calculated as the decrease in optical density between the time-0 and 5-min measurements and expressed as percent of aggregation.
Peptides were dissolved in PBS (pH 7) or water (final pH 5) to a concentration of 2 mg/mL. Some samples were heated in a water bath (70° C.) for 10 min, filtered through a 0.45-μm filter and incubated for 24 h or 7 days at 4° C. […] (H+F) and re-annealed at 4° C.

Molecule: O=C(O)C[C@H](NC(=O)[C@@H]1CCCN(C(=O)CCC2CCNCC2)C1)c1cccnc1 [elarofiban]
inhibition of platelet aggregation induced by CRP trimer having SEQ ID 145 [1]: dose-dependent inhibition | inhibition of platelet aggregation induced by collagen [1]: dose-dependent inhibition

EC50 ± SEM platelet aggregation ([2]; PBS, H + F, pH 7, incubation 24 h): Not Active
Molecule: (Pro-Xaa-Gly)10 [SEQ ID 154]
induction of platelet aggregation ([2]; Example 4): failed to aggregate platelets | stimulation of platelet aggregation ([2]; Example 6, FIG. 1): not effective

EC50 values (±SEM) platelet aggregation ([2]; Example 6, FIG. 1, Table 4): 0.56 ± 0.09 µg/mL | EC50 ± SEM platelet aggregation ([2]; native collagen fibrils, no peptide preparation): 0.25 µg/mL
Molecule: Collagen
